What follows are molecules tested against Beta-3 Adrenergic Receptor (Homo sapiens (Human), UniProt P13945) (assay: Homogeneous Time-Resolved Fluorescence (HTRF) cAMP antagonist assay, IC50 determination). Conditions: CHO-K1 cells stably expressing recombinant receptor, isoproterenol at EC90.
Assay type: cell-based
Procedure, shortened: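 Antagonist mode: isoproterenol at its predetermined EC90 added after compound to recombinant CHO-K1 cells in IBMX-containing PBS, 1 h, room temperature. Compounds tested as 5-fold, 10-point dilutions, top final typically 10 or 100 μM. HTRF signal converted to cAMP via standard curve, giving IC50.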

Beta-3 Adrenergic Receptor, sequence (P13945 whole entry, species assumed): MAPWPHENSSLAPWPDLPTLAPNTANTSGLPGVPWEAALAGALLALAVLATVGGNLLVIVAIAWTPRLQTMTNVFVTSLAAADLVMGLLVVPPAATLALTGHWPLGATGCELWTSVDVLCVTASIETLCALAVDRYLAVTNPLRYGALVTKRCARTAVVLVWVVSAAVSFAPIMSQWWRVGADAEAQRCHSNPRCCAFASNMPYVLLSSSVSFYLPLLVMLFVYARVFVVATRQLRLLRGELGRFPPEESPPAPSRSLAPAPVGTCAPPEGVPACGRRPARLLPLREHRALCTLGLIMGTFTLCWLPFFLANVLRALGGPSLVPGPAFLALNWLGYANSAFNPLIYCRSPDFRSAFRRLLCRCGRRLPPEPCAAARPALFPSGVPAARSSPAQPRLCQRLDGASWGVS

SMILES | IC50
CNS(=O)(=O)c1cccc(OC[C@@H](O)CNC2COC3(CCN(S(=O)(=O)c4ccc(OC(F)(F)F)cc4)CC3)C2)c1 (stereo partly drawn) [Compound 57, 3-((2S)-2-hydroxy-3-(8-(4-(trifluoromethoxy)phenylsulfonyl)-1-oxa-8-azaspiro[4.5]decan-3-ylamino)propoxy)-N-methylbenzenesulfonamide] | 31.7 nM
CNS(=O)(=O)c1cccc(OC[C@@H](O)CN[C@H]2COC3(CCN(S(=O)(=O)c4cccc(-c5ccc(S(N)(=O)=O)cc5)c4)CC3)C2)c1 [Compound 292, 3′-((R)-3-((S)-2-hydroxy-3-(3-(N-methylsulfamoyl)phenoxy)propylamino)-1-oxa-8-azaspiro[4.5]decan-8-ylsulfonyl)biphenyl-4-sulfonamide] | 30.1 nM
CNS(=O)(=O)c1cccc(OC[C@@H](O)CNC2COC3(CCN(S(=O)(=O)c4cccc(Oc5ccc(C(F)(F)F)cc5)c4)CC3)C2)c1 (stereo partly drawn) [Compound 161, 3-((2S)-2-hydroxy-3-(8-(3-(4-(trifluoromethyl)phenoxy)phenylsulfonyl)-1-oxa-8-azaspiro[4.5]decan-3-ylamino)propoxy)-N-methylbenzenesulfonamide] | 83.7 nM
CNS(=O)(=O)c1cccc(OC[C@@H](O)CNC2COC3(CCN(S(=O)(=O)c4cn[nH]c4)CC3)C2)c1 (stereo partly drawn) [Compound 131, 3-((2S)-3-(8-(1H-pyrazol-4-ylsulfonyl)-1-oxa-8-azaspiro[4.5]decan-3-ylamino)-2-hydroxypropoxy)-N-methylbenzenesulfonamide] | 84.7 nM
CCn1cc(S(=O)(=O)N2CCC3(CC2)C[C@@H](NC[C@H](O)COc2cccc(S(=O)(=O)NC)c2)CO3)c(=O)c2cc(F)ccc21 [Compound 536, 3-((S)-3-((R)-8-(1-ethyl-6-fluoro-4-oxo-1,4-dihydroquinolin-3-ylsulfonyl)-1-oxa-8-azaspiro[4.5]decan-3-ylamino)-2-hydroxypropoxy)-N-methylbenzenesulfonamide] | 166 nM
CNS(=O)(=O)c1cccc(OC[C@@H](O)CNC2COC3(CCN(S(=O)(=O)c4ccccc4S(C)(=O)=O)CC3)C2)c1 (stereo partly drawn) [Compound 43, 3-((2S)-2-hydroxy-3-(8-(2-(methylsulfonyl)phenylsulfonyl)-1-oxa-8-azaspiro[4.5]decan-3-ylamino)propoxy)-N-methylbenzenesulfonamide] | 74 nM
CNS(=O)(=O)c1cccc(OC[C@@H](O)CNC2COC3(CCN(S(=O)(=O)c4cccc(CO)c4)CC3)C2)c1 (stereo partly drawn) [Compound 390, 3-((2S)-2-hydroxy-3-(8-(3-(hydroxymethyl)phenylsulfonyl)-1-oxa-8-azaspiro[4.5]decan-3-ylamino)propoxy)-N-methylbenzenesulfonamide] | 153 nM
CNS(=O)(=O)c1cccc(OC[C@@H](O)CNC2COC3(CCN(S(=O)(=O)c4ccc(OC)c(C)c4C)CC3)C2)c1 (stereo partly drawn) [Compound 242, 3-((2S)-2-hydroxy-3-(8-(4-methoxy-2,3-dimethylphenylsulfonyl)-1-oxa-8-azaspiro[4.5]decan-3-ylamino)propoxy)-N-methylbenzenesulfonamide] | 420 nM

Other lines, results leading:

IC50 | SMILES
6.95 nM | CNS(=O)(=O)c1cccc(OC[C@@H](O)CN[C@H]2COC3(CCN(S(=O)(=O)c4cnc5[nH]cc(C(F)(F)F)c5c4)CC3)C2)c1 [Compound 509, 3-((S)-2-hydroxy-3-((R)-8-(3-(trifluoromethyl)-1H-pyrrolo[2,3-b]pyridin-5-ylsulfonyl)-1-oxa-8-azaspiro[4.5]decan-3-ylamino)propoxy)-N-methylbenzenesulfonamide]
21.3 nM | NS(=O)(=O)c1cccc(OC[C@@H](O)CN[C@H]2COC3(CCN(S(=O)(=O)c4c[nH]c5cc(F)ccc5c4=O)CC3)C2)c1 [Compound 555, 3-((S)-3-((R)-8-(7-fluoro-4-oxo-1,4-dihydroquinolin-3-ylsulfonyl)-1-oxa-8-azaspiro[4.5]decan-3-ylamino)-2-hydroxypropoxy)benzenesulfonamide]
13.9 nM | CNS(=O)(=O)c1cccc(OC[C@@H](O)CN[C@H]2COC3(CCN(S(=O)(=O)c4ccc(OC)c(-c5ccc(C6(N)CC6)cc5)c4)CC3)C2)c1 [Compound 464, 3-((S)-3-((R)-8-(4′-(1-aminocyclopropyl)-6-methoxybiphenyl-3-ylsulfonyl)-1-oxa-8-azaspiro[4.5]decan-3-ylamino)-2-hydroxypropoxy)-N-methylbenzenesulfonamide]
24.1 nM | CNS(=O)(=O)c1cccc(OC[C@@H](O)CNC2COC3(CCN(S(=O)(=O)c4cccc(-c5cccc(CO)c5)c4)CC3)C2)c1 (stereo partly drawn) [Compound 118, 3-((2S)-2-hydroxy-3-(8-(3′-(hydroxymethyl)biphenyl-3-ylsulfonyl)-1-oxa-8-azaspiro[4.5]decan-3-ylamino)propoxy)-N-methylbenzenesulfonamide]
29.5 nM | Cc1cc(S(=O)(=O)N2CCC3(CC2)CC(NC[C@H](O)COc2cccc(S(=O)(=O)N(C)C)c2)CO3)ccc1Br (stereo partly drawn) [Compound 249, 3-((2S)-3-(8-(4-bromo-3-methylphenylsulfonyl)-1-oxa-8-azaspiro[4.5]decan-3-ylamino)-2-hydroxypropoxy)-N,N-dimethylbenzenesulfonamide]
21 nM | CNS(=O)(=O)c1cccc(OC[C@@H](O)CNC2COC3(CCN(S(=O)(=O)c4cccc(-c5ccccc5)c4)CC3)C2)c1 (stereo partly drawn) [Compound 31, 3-((2S)-3-(8-(biphenyl-3-ylsulfonyl)-1-oxa-8-azaspiro[4.5]decan-3-ylamino)-2-hydroxypropoxy)-N-methylbenzenesulfonamide]
14.9 nM | CNS(=O)(=O)c1cccc(OC[C@@H](O)CNC2COC3(CCN(S(=O)(=O)c4ccc5c(c4)CCC(C)(C)O5)CC3)C2)c1 (stereo partly drawn) [Compound 127, 3-((2S)-3-(8-(2,2-dimethylchroman-6-ylsulfonyl)-1-oxa-8-azaspiro[4.5]decan-3-ylamino)-2-hydroxypropoxy)-N-methylbenzenesulfonamide]
18.7 nM | CNS(=O)(=O)c1cccc(OC[C@@H](O)CNC2COC3(CCN(S(=O)(=O)c4cccc(C(F)(F)F)c4)CC3)C2)c1 (stereo partly drawn) [Compound 38, 3-((2S)-2-hydroxy-3-(8-(3-(trifluoromethyl)phenylsulfonyl)-1-oxa-8-azaspiro[4.5]decan-3-ylamino)propoxy)-N-methylbenzenesulfonamide]
19.9 nM | CNS(=O)(=O)c1cccc(OC[C@@H](O)CN[C@@H]2COC3(CCN(S(=O)(=O)c4cccc(-c5ccc(CN)cc5)c4C)CC3)C2)c1 [Compound 447, 3-((S)-3-((S)-8-(4′-(aminomethyl)-2-methylbiphenyl-3-ylsulfonyl)-1-oxa-8-azaspiro[4.5]decan-3-ylamino)-2-hydroxypropoxy)-N-methylbenzenesulfonamide]
25.4 nM | CNS(=O)(=O)c1cccc(OC[C@@H](O)CNC2COC3(CCN(S(=O)(=O)c4c(F)cccc4F)CC3)C2)c1 (stereo partly drawn) [Compound 156, 3-((2S)-3-(8-(2,6-difluorophenylsulfonyl)-1-oxa-8-azaspiro[4.5]decan-3-ylamino)-2-hydroxypropoxy)-N-methylbenzenesulfonamide]
12.7 nM | NS(=O)(=O)c1cccc(OC[C@@H](O)CN[C@H]2COC3(CCN(S(=O)(=O)c4cnc5cc[nH]c5c4)CC3)C2)c1 [Compound 532, 3-((S)-3-((R)-8-(1H-pyrrolo[3,2-b]pyridin-6-ylsulfonyl)-1-oxa-8-azaspiro[4.5]decan-3-ylamino)-2-hydroxypropoxy)benzenesulfonamide]

Reference: patent US11987588B2, “Modulators of the beta-3 adrenergic receptor useful for the treatment or prevention of heart failure and disorders related thereto” (Arena Pharmaceuticals, Inc., priority 2017, dated 2024)
